# Test results reported in patent US9322066B2, “Predictors for cancer treatment” (priority 2011, dated 2016).
# Tested on: relapsed or refractory, rituximab-naive or -sensitive follicular B-cell NHL
# Assay: Overall survival (OS), Vc-R vs rituximab study, by biomarker
# Assay type: in vivo, human
# Design: OS Median: unit not given here
# Source text: Non-Hodgkin lymphoma (NHL) encompasses several unique malignant lymphoid disease entities that vary in clinical behavior, morphologic appearance, immunologic, and molecular phenotype. […] A randomized, open-label, active-controlled, multicenter, multinational, prospective study to compare the efficacy and safety of the combination of bortezomib and rituximab (Vc-R) to single-agent rituximab in subjects who have relapsed or refractory, rituximab-naive or -sensitive follicular B-cell NHL was performed.
# Subjects were centrally randomized to Treatment Groups A (Vc-R) or B (rituximab) in a 1:1 ratio taking into account the following stratification factors: • Follicular Lymphoma International Prognostic Index (FLIPI) score (low [0 or 1 factor], intermediate [2 factors], high [≧3 factors]); • Prior rituximab therapy (yes, no); • Time since last dose of anti-lymphoma therapy (≦1 year, >1 year); • Region (United States/Canada, European Union, Rest of World).
# The following clinical endpoints were included in the analysis within each treatment group and an overall comparison was made with the biomarker-related endpoints: Progression-free survival, defined as the interval between the date of randomization and the date of progressive disease (PD) or death, whichever is first reported in the ITT population; overall survival; overall response rate (complete response [CR]+CR unconfirmed [CRu]+partial response [PR]); overall CR rate (CR+CRu); duration of response; time to next anti-lymphoma therapy; and treatment free interval.
# Overall Survival was measured from the date of randomization to the date of the subject's death. If the subject was alive or the vital status was unknown, it was censored at the date that the subject was last known to be alive. Similar to PFS and TTP, the Cox proportional hazard model was used to evaluate the association between biomarker endpoints and OS. Kaplan-Meier survival curves were presented. Analyses were done for the population overall and by treatment group, and each of these analyses was stratified by the covariates used for PFS.
# [1] = 20S % POSITIVE CYTOPLASMIC SIGNAL: 95-100, 2 Prior Lines of Therapy
# [2] = 20S % POSITIVE CYTOPLASMIC SIGNAL: 95-100, Ann Arbor Stage IV
# [3] = BCL2/P59L: MD, Ann Arbor Stage IV
# [4] = BCL2/P59L: MD, High FLIPI Score
# [5] = BCL2/P59L: MD, High Tumor Burden
# [6] = BCL2/P59L: MD, No Prior Rituximab Therapy
# [7] = CD68 OVERALL POSITIVE: 26-50, 2 Prior Lines of Therapy
# [8] = CD68 POSITIVE PERIFOLLICULAR: 26-50, 2 Prior Lines of Therapy
# [9] = NOTCH/P2513L: MD, >65 years old
# [10] = PSMB5/R24C: C/T, Ann Arbor Stage IV
# [11] = PSMB5/R24C: C/T, Intermediate FLIPI Score
substance,measurement,setting,value
rituximab,OS Evt/N,"20S % POSITIVE CYTOPLASMIC SIGNAL: 0-20, 2 Prior Lines of Therapy",1/10
same,OS Evt/N,"20S % POSITIVE CYTOPLASMIC SIGNAL: 0-20, Ann Arbor Stage IV",1/15
same,OS Evt/N,[1],14/35
same,OS Median,[1],1205
same,OS Evt/N,[2],25/56
same,OS Median,[2],1205
same,Median OS (Vc − R vs R),"20S INTENSITY CYTOPLASMIC SIGNAL >=3+ + P65 % POSITIVE CYTOPLASMIC SIGNAL <=90%, Selected (biomarker positive)",717 days
same,OS Evt/N,"20S INTENSITY CYTOPLASMIC SIGNAL: ≦2+, Intermediate FLIPI Score",2/48
same,OS Evt/N,"20S INTENSITY CYTOPLASMIC SIGNAL: ≧3+, Male",10/27
same,Median OS (Vc − R vs R),"AGEGRP >65 + CD68 POSITIVE FOLLICULAR >50, Selected (biomarker positive)",971 days
same,OS Evt/N,[3],5/5
same,OS Median,[3],174
same,OS Evt/N,"BCL2/P59L: MD, Female",6/8
same,OS Median,"BCL2/P59L: MD, Female",536
same,OS Evt/N,[4],6/6
same,OS Median,[4],282
same,OS Evt/N,[5],5/6
same,OS Median,[5],282
same,OS Evt/N,[6],5/5
same,OS Median,[6],174
same,OS Evt/N,"BCL2/P59L: MD, Rest of World",4/5
same,OS Median,"BCL2/P59L: MD, Rest of World",174
same,OS Evt/N,"BCL2/R106H: MD, Male",8/10
same,OS Median,"BCL2/R106H: MD, Male",318
same,OS Evt/N,[7],13/26
same,OS Median,[7],1205
same,OS Evt/N,"CD68 OVERALL POSITIVE: 26-50, No High Tumor Burden",14/54
same,OS Evt/N,"CD68 OVERALL POSITIVE: 51-75, Ann Arbor Stage III",2/21
same,OS Evt/N,"CD68 POSITIVE FOLLICULAR: 0-25, No Prior Rituximab Therapy",11/36
same,OS Evt/N,"CD68 POSITIVE FOLLICULAR: 0-25, ≦65 years old",14/46
same,OS Evt/N,[8],7/16
same,OS Median,[8],1205
same,OS Evt/N,"CD68 POSITIVE PERIFOLLICULAR: 26-50, Male",11/30
same,OS Evt/N,"CD68 POSITIVE PERIFOLLICULAR: 26-50, No High Tumor Burden",10/41
same,Median OS (Vc − R vs R),"FLIPI High + CD68 POSITIVE FOLLICULAR 0-50, Selected",1263 days
same,Median OS (Vc − R vs R),"FLIPI High + P27 % NUCLEI POSITIVE 0-70, Selected",1111 days
same,Median OS (Vc − R vs R),"FLIPI High + P27 SIGNAL INTENSITY >=2+, Selected",1263 days
same,OS Evt/N,[9],8/13
same,OS Median,[9],795
same,OS Evt/N,"NOTCH/P2513L: MD, No High Tumor Burden",7/26
same,OS Evt/N,"NOTCH/Q2460X: MD, Male",3/3
same,OS Median,"NOTCH/Q2460X: MD, Male",595
same,OS Evt/N,"NOTCH/X28DEL: MND, 2 Prior Lines of Therapy",20/56
same,OS Evt/N,"NOTCH/X28DEL: MND, Male",26/75
same,OS Evt/N,"P27 % NUCLEI POSITIVE: 0-20, No High Tumor Burden",3/29
same,OS Evt/N,"P27 % NUCLEI POSITIVE: 60-70, Male",4/12
same,OS Evt/N,"P65 % POSITIVE CYTOPLASMIC SIGNAL: >90%, 2 Prior Lines of Therapy",19/52
same,OS Evt/N,"P65 INTENSITY CYTOPLASMIC SIGNAL: ≦1+, Intermediate FLIPI Score",1/17
same,OS Evt/N,"P65 INTENSITY CYTOPLASMIC SIGNAL: ≧2+, 2 Prior Lines of Therapy",19/55
same,OS Evt/N,[10],9/15
same,OS Median,[10],717
same,OS Evt/N,[11],4/10
same,OS Median,[11],971
same,OS Evt/N,"PSMB9/R60H: A/A, 3 Prior Lines of Therapy",1/6
same,Median OS (Vc-R vs R),"SEX MALE + 20S % NUCLEAR STAINING 30-90, Selected",1263 days
same,Median OS (Vc-R vs R),Selected: FLIPI High and P65 % POSITIVE CYTOPLASMIC SIGNAL >90%,1263 days
